We go through two molecules from patent US20120101099A1, “HISTONE DEACETYLASE INHIBITORS” (ANTHEM BIOSCIENCES PRIVATE LIMITED, priority 2009, published 2012).

As a reminder, the GI50 is the concentration giving 50% growth inhibition.

Where a name gives a salt, the structure may show the parent alone. Read-outs that look alike come from different tables or passages of the source.

Series [1] concerns Ca Ski. Kind of series: Anti-proliferative activity (GI50). As to conditions: Homo sapiens, read-out: Anti-proliferative activity (GI50) Ca Ski. The series is classed as cell-based. How it is done:
(§1) Cells were seeded in a 96-well cell culture plates at a concentration of 10,000 cells per well and incubated at 37° C. in CO2 incubator.
(§2) Twenty-four hours later cells were treated with different concentrations (100, 10, 1, 0.1, and 0.01 μM) of compound dissolved in DMSO and incubated for 48 hours. For To measurement, 24 hours after seeding the cells, 20 μL of 3-(4.5-dimethyl-2- thiazolyl)-2,5-diphenyl-2H-tetrazolium (MTT) solution per well was added to the T0 plate and incubated for 3 hours at 37° C. in a CO2 incubator.
(§3) The plate containing cells and test compounds was treated similarly after 48 hours of incubation. After 3 hours of MTT addition, well contents were aspirated carefully followed by addition of 100 μL DMSO per well. Plates were agitated to ensure dissolution of the formazan crystals in DMSO and absorbance was read at 570 nm (A570). […] From the percentage growths a dose response curve was generated and GI50 values were interpolated from the growth curves.

For series [2], the system named is HCT-116. Briefly: Anti-proliferative activity (GI50). The series is classed as cell-based. To be noted: Homo sapiens. How it is done: as §1, §2, §3
In series [3] the test system is RPMI-8226. Briefly: Anti-proliferative activity (GI50). As to conditions: Homo sapiens. The series is classed as cell-based. How it is done: as §1, §2, §3
Series [4] relates to Colo-205. Briefly: Anti-proliferative activity (GI50). The series is classed as cell-based. To be noted: Homo sapiens. How it is done: as §1, §2, §3
For series [5], the system named is Calu-6. Kind of series: Anti-proliferative activity (GI50). As to conditions: Homo sapiens. In kind it is cell-based. Here is the method: as §1, §2, §3
Series [6] has as its system K562. Briefly: Anti-proliferative activity (GI50). The series is classed as cell-based. As to conditions: Homo sapiens. How it is done:
as §1, §2, §3

The subject of series [7] is ACHN. Briefly: Anti-proliferative activity (GI50). The series is classed as cell-based. To be noted: Homo sapiens, read-out: Anti-proliferative activity (GI50) ACHN. How it is done:
as §1, §2, §3

For series [8], the system named is KHOS. Briefly: Anti-proliferative activity (GI50). The series is classed as cell-based. To be noted: read-out: Anti-proliferative activity (GI50) KHOS. Here is the method:
as §1, §2, §3

Series [9] deals with IMR-32. Briefly: Anti-proliferative activity (GI50). To be noted: Homo sapiens. The series is classed as cell-based. Here is the method: as §1, §2, §3
Series [10] deals with PANC-1. Kind of series: Anti-proliferative activity (GI50). In kind it is cell-based. To be noted: Homo sapiens. Here is the method:
as §1, §2, §3

Series [11] deals with Hela-S3. Briefly: Anti-proliferative activity (GI50). The series is classed as cell-based. As to conditions: Homo sapiens. Here is the method:
as §1, §2, §3

For series [12], the system named is MCF-7. Briefly: Anti-proliferative activity (GI50). As to conditions: Homo sapiens. The series is classed as cell-based. How it is done:
as §1, §2, §3

Series [13] relates to SH-SY-5Y. Briefly: Anti-proliferative activity (GI50). The series is classed as cell-based. As to conditions: Homo sapiens, SH-SY5Y, read-out: Anti-proliferative activity (GI50) SH-SY-5Y. How it is done:
as §1, §2, §3

In series [14] the test system is A431. Kind of series: Anti-proliferative activity (GI50). In kind it is cell-based. As to conditions: Homo sapiens. How it is done:
as §1, §2, §3

The test system of series [15] is HCT-15. Briefly: Anti-proliferative activity (GI50). The series is classed as cell-based. To be noted: Homo sapiens. Here is the method: as §1, §2, §3
Series [16] has as its system DU-145. Kind of series: Anti-proliferative activity (GI50). The series is classed as cell-based. To be noted: Homo sapiens. How it is done:
as §1, §2, §3

The test system of series [17] is U-87-MG. Briefly: Anti-proliferative activity (GI50). In kind it is cell-based. To be noted: Homo sapiens, read-out: Anti-proliferative activity (GI50) U-87-MG. Here is the method: as §1, §2, §3
In series [18] the test system is acetyl-Histone H3. Kind of series: Histone hyperacetylation in Hela cells (Western Blot). In kind it is cell-based. The arrangement: key: represented by the symbol ‘+’ which indicates the relative extent of modulation; ++: represented by the symbol ‘+’ which indicates the relative extent of modulation; +++: represented by the symbol ‘+’ which indicates the relative extent of modulation; ++++: represented by the symbol ‘+’ which indicates the relative extent of modulation. To be noted: 24 hrs, 0.03-3.0 μM. Here is the method: HeLa Cells were seeded at a density of 0.4×10^6 Cells/well into 6 well plates and incubated for 24 h The compounds were tested at 5 different concentrations (0.03, 0.1, 0.3, 1.0, 3.0 μM) with corresponding control. After 24 hrs cells were lysed and histone proteins were extracted as per established protocols and the extract was used for measuring H3 and H4 hyperacetylation by Western Blot using Anti-acetyl-Histone H3 and Anti-acetyl-Histone H4 (Millipore, USA) antibodies.
On the technique in general: Immunoblotting shows a protein as a band on a membrane.

Series [19] is described as follows: Metabolic stability in mouse liver microsomes. The series is classed as in vitro ADME. As to conditions: 100 μM, 37° C. Here is the method:
The objective of the study is to determine the metabolic stability of the compounds in mouse liver microsomes. Brief procedure: metabolic stability of test compounds were carried out using mouse liver microsomes. The final composition of the assay includes test compound 100 μM (dissolved in DMSO), mouse microsomal protein 0.5 mg/mL and cofactors (G-6-P 5.0 mM, G-6-PDH 0.06 U, MgCl2 2.0 mM, NADP+1.0 mM, UDPGA 0.5 mM, PAPS 0.6 mM and GSH 1 mM). The test compounds were incubated at with mouse liver microsomes with cofactors. After 1 h incubation at 37° C., the reaction was stopped by addition of stop solution (ice cold acetonitrile). The samples were centrifuged and supernatants were analysed using LC/MS/MS. The Percent of parent test compounds remaining after 1 h of incubation time was calculated with respect to the peak areas of at time 0.
Background: Microsomes from liver hold many membrane-bound enzymes, among them those of drug oxidation.

The test system of series [20] is A549. Briefly: Cell proliferation assay (MTT). In kind it is cell-based. As to conditions: Homo sapiens. The essentials: (§4)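 MTT read-out, A570 after 3 h dye incubation and DMSO solubilisation. Percentage growth vs T0 plate measured at time of dosing; GI50 interpolated from growth curves.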
Series [21] deals with PC-3. Kind of series: Cell proliferation assay (MTT). In kind it is cell-based. To be noted: Homo sapiens. The procedure, abridged:
as §4

Series [22] concerns HT-29. Briefly: Cell proliferation assay (MTT). As to conditions: Homo sapiens. The series is classed as cell-based. The essentials:
as §4

Consider `O=C(/C=C/c1cccc(Cn2cc(-c3ccc(CN4CCOCC4)cc3)nn2)c1)NO` [Example 25, N-Hydroxy-3-{3-[4-(4-morpholin-4-ylmethyl-phenyl)-[1,2,3]triazol-1-ylmethyl]-phenyl}-acrylamide hydrochloride], for which the GI50 in [1] (Table 9, Cervix) came to 400 ± 280 nM; in [2] (HCT-116, Table 9, Colon, read-out: Anti-proliferative activity (GI50) HCT-116) it was 200 ± 50 nM; in [3] (RPMI-8226, Table 9, Leukemia, read-out: Anti-proliferative activity (GI50) RPMI-8226), 200 ± 250 nM; in [4] (COLO 205, Table 9, Colon, read-out: Anti-proliferative activity (GI50) Colo-205) it was 200 ± 30 nM; in series [5] (Calu-6, Table 9, Lung, read-out: Anti-proliferative activity (GI50) Calu-6), 600 ± 180 nM; in series [6] (K562, Table 9, Leukemia, read-out: Anti-proliferative activity (GI50) K562) it was 200 ± 80 nM. For the same molecule, the GI50 in [7] (Table 9, Renal) amounted to 200 ± 80 nM; in series [8] (Table 9, Bone) it was 4600 ± 550 nM; in series [9] (IMR-32, Table 9, Brain, read-out: Anti-proliferative activity (GI50) IMR-32), 200 ± 20 nM; in [10] (PANC-1, Table 9, Pancreas, read-out: Anti-proliferative activity (GI50) PANC-1), 4000 nM; in series [11] (HeLa S3, Table 9, Cervix, read-out: Anti-proliferative activity (GI50) Hela-S3), 200 ± 20 nM; in series [12] (MCF7, Table 9, Breast, read-out: Anti-proliferative activity (GI50) MCF-7), 2100 ± 2630 nM. Besides, the GI50 in series [13] (Table 9, Brain) was 200 ± 30 nM; in series [14] (A-431, Table 9, Skin, read-out: Anti-proliferative activity (GI50) A431) it was 200 ± 30 nM; in series [15] (HCT-15, Table 9, Colon, read-out: Anti-proliferative activity (GI50) HCT-15) it was 1700 ± 890 nM; in [16] (DU-145, Table 9, Prostate, read-out: Anti-proliferative activity (GI50) DU-145), 100 ± 30 nM; in [17] (Table 9, Brain) it was 1100 ± 730 nM; in [20] (A549, Table 1, MTT, 48 hours, read-out: Cell growth inhibition (GI50 in μM) A549) it was 2.5 ± 0.8 µM. Moreover, the GI50 in series [20] (A549, Table 9, Lung, read-out: Anti-proliferative activity (GI50) A549) is 2 ± 1.52 µM; in [21] (PC-3, Table 1, MTT, 48 hours, read-out: Cell growth inhibition (GI50 in μM) PC-3) it was 4 ± 3.9 µM; in series [21] (PC-3, Table 9, Prostate, read-out: Anti-proliferative activity (GI50) PC-3), 1.7 ± 1.02 µM; in series [22] (HT-29, Table 1, MTT, 48 hours, read-out: Cell growth inhibition (GI50 in μM) HT-29), 0.2 µM; in series [22] (HT-29, Table 9, Colon, read-out: Anti-proliferative activity (GI50) HT-29) it was 0.4 ± 0.13 µM. Further, the “Target modulation: H3 acetylation” value in series [18] is on record as “++++”. For the same molecule, in series [19], the “% Stable compounds after 1 hr incubation” value came out at 57%.
Turning to `O=C(CCCCCCC(=O)Nc1ccccc1)NO` [SAHA, Suberoylanilide Hydroxamic Acid, reference compound], the GI50 in series [1] was determined as 6000 ± 5300 nM; in series [2] (HCT-116, read-out: Anti-proliferative activity (GI50) HCT-116) it was 2200 nM; in series [3] (RPMI-8226, read-out: Anti-proliferative activity (GI50) RPMI-8226), 2200 ± 2300 nM; in series [4] (COLO 205, read-out: Anti-proliferative activity (GI50) Colo-205) it was 1600 ± 100 nM; in series [5] (Calu-6, read-out: Anti-proliferative activity (GI50) Calu-6), 3500 ± 500 nM; in [6] (K562, read-out: Anti-proliferative activity (GI50) K562), 2200 ± 700 nM. Also, the GI50 in [7] was found to be 1600 ± 500 nM; in [8], 29300 ± 7200 nM; in series [9] (IMR-32, read-out: Anti-proliferative activity (GI50) IMR-32), 1800 ± 200 nM; in [10] (PANC-1, read-out: Anti-proliferative activity (GI50) PANC-1), 21900 nM; in [11] (HeLa S3, read-out: Anti-proliferative activity (GI50) Hela-S3) it was 2900 ± 500 nM; in series [12] (MCF7, read-out: Anti-proliferative activity (GI50) MCF-7), 5500 ± 1200 nM. Moreover, the GI50 in series [13] came out at 800 ± 400 nM; in [14] (A-431, read-out: Anti-proliferative activity (GI50) A431), 1900 ± 1000 nM; in series [15] (HCT-15, read-out: Anti-proliferative activity (GI50) HCT-15), 5200 ± 1900 nM; in [16] (DU-145, read-out: Anti-proliferative activity (GI50) DU-145), 1300 nM; in series [17] it was 6700 ± 1100 nM; in [20] (A549, read-out: Anti-proliferative activity (GI50) A549), 5.9 ± 2.4 µM. For the same molecule, the GI50 is 8.3 ± 0.6 µM in series [21] (PC-3, read-out: Anti-proliferative activity (GI50) PC-3) and 3.6 ± 2.6 µM in [22] (HT-29, read-out: Anti-proliferative activity (GI50) HT-29). The “Target modulation: H3 acetylation” value in [18] is listed as “+++”. In addition, in [19], the “% Stable compounds after 1 hr incubation” value stood at 67%.
